In ChEMBL document CHEMBL3507680, “University of Dundee, Gates Library screen for HepG2 cell viability”:

Experiment: Human HepG2 cell viability assay in 384 well format
Type: toxicity, cell-based
Set-up: dose 125 nL, time 70.5 hour; cytotoxicity at 70.5 h: concentration not given beside the values
Conditions: HepG2 cells, read-out: Inhibition

| Compound | cytotoxicity at 70.5 h [%] |
| --- | --- |
| CCN(CC)S(=O)(=O)c1ccc(C(=O)NC(C)(C)C)cc1 | 35.7 |
| CCS(=O)(=O)NCC(=O)N1CCC(c2cc3ccccc3[nH]2)CC1 | 1.52 |
| CN1CCN(c2ccc(F)cc2NC(=O)NCc2ccon2)CC1 | 0.112 |
| O=S(=O)(NC1CCCOC1)c1ccc(C(F)(F)F)nc1 (centres undefined) | -1.78 |
| CC(O)c1cccc(OCc2ccon2)c1 (centres undefined) | -2.61 |
| CN(Cc1nnnn1C1CC1)CC1COc2ccccc2O1 (centres undefined) | -0.558 |
| CN(C)CCN(Cc1ccc(F)cc1)C(=O)c1ccn(C)c(=O)c1 | -5.2 |
| COC(=O)c1cccc(C(=O)N(CCC#N)CC(C)(C)C)c1 | 1.22 |
| c1ccc(N2CCC(OCC3CCCCO3)CC2)nc1 (centres undefined) | 0.314 |
| Clc1ccc(N2CCC(OCC3CCCCO3)CC2)nc1 (centres undefined) | -1.36 |
| CC(C)n1cnnc1SCCN(C)c1ccccc1 | -6.85 |
| CCCOc1cccc(OCc2ccon2)c1 | -7.15 |
| COCCN(C)C(C)Cc1ccccc1OC (centres undefined) | -11.8 |
| CCOCc1ccc(NC(=O)N2CCOC3(CCC3)C2)cc1 | -5.85 |
| CC(NC(=O)CCCN(C)C)c1cn(-c2ccccc2)nn1 (centres undefined) | 20.9 |
| CC(C)CCC(=O)N1CCC2(CC1)OCCO2 | -4.64 |
| CCCC(=O)N1CCC2(CC1)OCCO2 | -2.35 |
| CN(C)c1cc(CNC(=O)CC2CCCCC2)ccn1 | -5.82 |
| CNS(=O)(=O)c1ccc(C(=O)NCc2ccnc(OC)c2)cc1 | -10 |
| COc1cc(C)ccc1OCCC(=O)N1CCC(C(N)=O)C1 (centres undefined) | -10.8 |
| NC(=O)C(Nc1ccc(Cl)cc1)c1ccc(F)cc1 (centres undefined) | -0.513 |
| O=C(NCCc1coc(-c2ccc(F)cc2)n1)NCC1CCOC1 (centres undefined) | 20.9 |
| CNS(=O)(=O)CC(=O)NC(c1cc(C)sc1C)C(C)C (centres undefined) | 2.55 |
| Cc1cnn(Cc2ccc(NC(=O)N3CCCC3)cc2)c1 | -3.9 |

| Compound | cytotoxicity at 70.5 h [%] |
| --- | --- |
| CCc1nc(Cn2c(=O)c3c(C(F)(F)F)cc(C)nc3n2C)no1 | 0.468 |
| Cc1cc(C(F)(F)F)c2c(=O)n(Cc3ccon3)n(C)c2n1 | -5.27 |
| CC(O)(CNC(=O)NCCc1ccc2c(c1)CCO2)c1ccccc1 (centres undefined) | -0.353 |
| CSc1ccc(NC(=O)Cn2cc(N)cn2)cc1 | -6.5 |
| O=C(C1CC(c2cccc(F)c2)=NO1)N1CCc2ccccc21 (centres undefined) | -4.18 |
| O=c1ccc(S(=O)(=O)N2CCCC2)cn1CC1CCCCO1 (centres undefined) | -11.1 |
| Cc1ccc(OCCn2cnc3oc(C)c(C(=O)O)c3c2=O)cc1 | 19.9 |
| CCN(CC)c1nc2sc(C(=O)N3CCNC(=O)C3)cc2s1 | -8.64 |
| Cc1noc(C2CCCN(Cn3cc(Cl)cn3)C2)n1 (centres undefined) | -1.46 |
| Cc1noc(C2CCCN(Cn3cc(Br)cn3)C2)n1 (centres undefined) | -8.2 |
| CC(NC(=O)N1CCCN(C)CC1)c1ccc2c(c1)OCCO2 (centres undefined) | -6.8 |
| CN(C)c1nc2sc(C(=O)N3CCNC(=O)CC3)cc2s1 | -10.2 |
| O=C(C1CC(c2ccccc2)=NO1)N1CCCCc2ccccc21 (centres undefined) | -7.24 |
| CC(NCc1cnc(N2CCOCC2)s1)c1ccc(Cl)s1 (centres undefined) | -7.8 |
| Cc1ccc(N2CCCC(Nc3nn4cc(C)nc4s3)C2)nn1 (centres undefined) | -9.29 |
| Clc1ccc2cccnc2c1CNC1CCc2ncnn2C1 (centres undefined) | -5.27 |
| Cc1cc(C[S+]([O-])Cc2ccccc2F)on1 (centres undefined) | -8.66 |
| CSc1ccc(NC(=O)Cn2cc(NC(C)=O)cn2)cc1 | -7.71 |
| CN(C)c1ccc(C(=O)Nc2ccn(Cc3ccccn3)n2)cn1 | 14.6 |
| COC(=O)CC1CSCCN1C(=O)CCc1c(C)nn(C)c1C (centres undefined) | -7.68 |
| CCCC(=O)Nc1cnn(CC(=O)Nc2ccc(SC)cc2)c1 | -5.62 |
| CC1(NC(=O)CNC(=O)C(C)(C)C)CCc2ccccc2C1 (centres undefined) | -7.61 |
| CC(C)COc1cncc(N(C)C2CCN(c3ncccn3)CC2)n1 | -12 |
| CC(C)Cn1ncc(C(=O)NS(=O)(=O)C2CCCC2)c1C1CC1 | -8.4 |

| Compound | cytotoxicity at 70.5 h [%] |
| --- | --- |
| CCN(C(=O)CN1CCCN(c2nc(C)ns2)CC1)C1CC1 | -3.69 |
| CCS(=O)(=O)N1CCCN(CCCOC)CC1 | -6.15 |
| Cc1cnn(C2CN(CCOc3cccc(C#N)c3)C2)c1 | -5.43 |
| Cn1c(SCc2noc(-c3ccsc3)n2)nnc1C1CCS(=O)(=O)C1 (centres undefined) | -4.08 |
| Cc1noc(C)c1C(=O)NCCc1cccs1 | 0.104 |
| COc1ccc(CN2CCCN(c3cc(C(N)=O)ccn3)CC2)cc1 | 9.62 |
| COc1cccc(COCC(=O)NC(C(N)=O)c2ccccc2)c1 (centres undefined) | 3.41 |
| Cc1c(-c2ccncc2)n[nH]c1NC(=O)CCOC(C)C | -4.44 |
| CNS(=O)(=O)c1ccccc1N1CCN(C(C)C(N)=O)CC1 (centres undefined) | -3.93 |
| CNS(=O)(=O)c1ccccc1N1CCN(C(=O)NC(C)C)CC1 | -5.21 |
| CC(C)N1CCC(NC(=O)NCCC(=O)NCc2ccccc2)C1 (centres undefined) | 10.4 |
| CCc1noc(C)c1C(=O)N1CCN(c2nc(C)cc(OC)n2)CC1 | 5.53 |
| CNS(=O)(=O)c1ccccc1N1CCN(C(C)C(=O)OC)CC1 (centres undefined) | -3.28 |
| CNC(=O)COc1ccccc1CNC1CCc2nc(C)nn2C1 (centres undefined) | -6.32 |
| CCN1CCN(C2CCN(Cc3ccc(Cl)s3)CC2)C1=O | 1.3 |
| CC(C)(C)C(=O)NCCC(=O)NS(=O)(=O)c1cccc(C#N)c1 | 15.8 |
| CN1CCN(C2CCN(Cc3ccc(Cl)s3)CC2)C1=O | -0.237 |
| Cc1cc(C2CCCN(C(=O)COc3ccccc3F)C2)n[nH]1 (centres undefined) | 12.5 |
| CCCN(C(=O)c1ccc(-n2ccnn2)cc1)c1cccnc1 | -3.08 |
| CN(Cc1ncnn1C)C(=O)CCCn1ccc2cc(Cl)ccc21 | -1.32 |
| O=C(c1ccc(-n2ccnn2)cc1)N(CC1CC1)c1cccnc1 | 5.29 |
| Cc1ccccc1CCCN1C(=O)CC2(CCSC2)C1=O (centres undefined) | 2.27 |
| Cc1nc(CN2CCC(C(=O)N(C)C3CCC(C)CC3)CC2)cs1 (centres undefined) | -3.95 |
| Cc1cc2n(n1)CC(CNC1CCN(C(=O)C3CC3)CC1)CN2 (centres undefined) | 16.7 |

| Compound | cytotoxicity at 70.5 h [%] |
| --- | --- |
| COc1ccnc(N2CCN(C(=O)c3cc(C4CC4)[nH]n3)CC2)n1 | -5.93 |
| CC(C)c1cc(C(=O)N2CCCN(Cc3ccccc3)CC2)n[nH]1 | -5.87 |
| Cc1ccc(CNC(=O)NC2CCN(CC(F)F)CC2)cc1 | -4.96 |
| Cc1noc(CCCC(=O)NC(C)c2nnc3n2CCCCC3)n1 (centres undefined) | -1.92 |
| COc1ccnc(N2CCN(C(=O)c3cscn3)CC2)n1 | -2.19 |
| Cc1cc2n(n1)CC(CNC1CCN(c3ccccn3)CC1)CN2 (centres undefined) | -0.0737 |
| Cc1nc(CN2CCC(CNC(=O)CCC3CCCC3)CC2)oc1C | -2.1 |
| CC(C)(C)S(=O)(=O)CCNC(=O)c1cnc(-c2ccccc2)nc1 | -0.525 |
| Cc1nc(CN2CCC(CNC(=O)C3(C#N)CCCC3)CC2)oc1C | -5.03 |
| CCOc1ccc(NS(=O)(=O)c2cc(C)c(C(=O)O)s2)c(C)c1 | -3.91 |
| O=C(NCc1cccc(-n2cncn2)c1)NCC(C1CC1)C1CC1 | -5.02 |
| CCC(CC)c1cc(CNC(=O)N2CCCC(C(=O)NC)C2)on1 (centres undefined) | -0.471 |
| Cc1cnn(CC2CN(CCS(=O)(=O)C(F)(F)F)CCO2)c1 (centres undefined) | 23.8 |
| c1cc(CNCc2ccnc(N3CCCC3)c2)c2c(c1)OCO2 | -6.8 |
| CC1CN(c2cc(CNCc3cccc4c3OCCO4)ccn2)CCO1 (centres undefined) | -10.3 |
| COc1ccc(C(=O)O)c(OCC(=O)NC(C)c2ccc(F)cc2)c1 (centres undefined) | -6.92 |
| c1cc(CNCc2ccnc(N3CCOCC3)c2)c2c(c1)OCCCO2 | -9.7 |
| Cc1nc(CNC(=O)[C@@H]2CCCN2C(=O)OC(C)(C)C)cs1 | -7.16 |
| Cc1cn(CC(=O)NC2CCN(CC3CC3)CC2)c2ccccc12 | -9.9 |
| CC(C)(C)OC(=O)N1CCCCC1C(=O)NCc1cc[nH]n1 (centres undefined) | -7.48 |
| N#Cc1ccnc(N2CCN(CC(O)c3ccc(F)c(F)c3)CC2)c1 (centres undefined) | -2.47 |
| N#Cc1ccnc(N2CCN(CC(O)c3ccc(F)cc3)CC2)c1 (centres undefined) | -0.587 |
| O=C(Nc1cccc(N2CCN(CC3CC3)CC2)c1)C1CCOC1 (centres undefined) | -4.69 |
| Cc1cn(CC(=O)NCC(=O)NC2CC2)c2ccccc12 | -0.742 |

| Compound | cytotoxicity at 70.5 h [%] |
| --- | --- |
| O=C(Nc1cccc(N2CCN(CC3CC3)CC2)c1)C1CCCO1 (centres undefined) | 17 |
| O=S(=O)(CCCN1CCOC(Cn2cccn2)C1)c1ccccc1 (centres undefined) | 2.06 |
| Cc1cn(CC(=O)NC2CCN(C(C)C)CC2)c2ccccc12 | -1.25 |
| CNC(=O)CN1CCC(NC(=O)Cn2cc(C)c3ccccc32)CC1 | 0.492 |
| Cc1cnn(CC2CN(CCCS(C)(=O)=O)CCO2)c1 (centres undefined) | -0.801 |
| N#Cc1ccnc(N2CCN(CC(O)c3c(F)cccc3F)CC2)c1 (centres undefined) | 15.3 |
| O=C(NC1CCS(=O)(=O)C1)c1sccc1OC(F)F (centres undefined) | 0.608 |
| CN1CCN(C(=O)C2CCCc3[nH]ncc32)CC1 (centres undefined) | -1.9 |
| Cc1ccc2c(c1)C(NCc1nnc3n1CCCCC3)CCCO2 (centres undefined) | 11.8 |
| Cc1cnc(NC(=O)N2CCOCC2)s1 | -2.62 |
| Cc1cnc(NC(=O)N2CCCCCC2)s1 | -4.75 |
| CCN(CC(=O)NC(C)C)S(=O)(=O)N1CCCCC1C (centres undefined) | -3.14 |
| Cc1noc(C)c1CN1CCN(C(=O)CCn2cncn2)CC1 | -6 |
| CSCC(C)(O)CNC(=O)c1ccc(F)cc1Br (centres undefined) | -4.95 |
| CN(Cc1noc(C2CC2)n1)CC1CCN(CCO)CC1 | 14.4 |
| Cc1noc(CN(C)CC2CCN(CCO)CC2)n1 | 5 |
| O=C(NCc1ccccc1CN1CCOCC1)c1ccc(Br)cc1F | 2.01 |
| COc1ccc(C(CNC(=O)c2cnc(C)cn2)N2CCOCC2)cc1 (centres undefined) | -3.63 |
| CN1CCN(Cc2ccccc2CNC(=O)c2ccc(Cl)cc2F)CC1 | 3.69 |
| CCc1c(C)[nH]c(C2(N)CCCC2)nc1=O | -2.07 |
| Cc1nc(C)c(C(C)NCc2cnc(N3CCOCC3)nc2)s1 (centres undefined) | 19.8 |
| c1cc(CNCc2ccnc(N3CCOCC3)c2)c2c(c1)OCO2 | -8.43 |
| COc1c(CNC2CCOc3c(Cl)cccc32)c(C)nn1C (centres undefined) | 12.2 |
